# From patent US12631644B2, “Biomarker panel targeted to diseases due to multifactorial ontology of glycocalyx disruption” (Arterez, Inc., priority 2019, dated 2026)
# Experiments:
# inflammation and plaque = test: Average disease scores (aortic sinus histology) in high-fat diet mice, Example 1; format: in vivo, mouse; conditions: FIG. 9; per group and time point; gavage 150 μmol/kg
# Procedure: For a pilot study, forty-eight 10-week old male C57/Bl6 mice were obtained from Jackson Laboratories. Three mice were raised from 6 weeks on a regular diet and served as controls, and the remaining 45 were raised on a 60% fat diet (D12451, DIO series diet, Opensource Diets). For a bacterial dosage test, sixteen 10-week old male C57/Bl6 mice were divided into four treatment groups and maintained on a normal diet.
# 3,3′,4,4′-Tetrachlorobiphenyl (PCB-77) was obtained from Neosyn Laboratories. 100 mg of the dry chemical was suspended in 15.22 ml of corn oil to deliver 150 μmol/kg in 0.2 ml per mouse. […]
# The hearts were prepared as frozen sections: they were mounted in blocks, and 10 μm-thick sections were cut through the aortic valve, to yield 30 sections per mouse. […] Multiple 10-μm sections at the level of the aortic sinus were analyzed for the presence of Oil Red O lipid staining, plaque size, amount of fibrous tissue, and inflammation. The percentage of the lumen occupied by the first three features was calculated using Image Pro Plus. […] The level of inflammation in each section was scored on the following scale: 0=no inflammatory cells observed, 1=few macrophages with no giant cells, 2=foam cells present, 3=foam cells with cholesterol, 4=foam cells, giant cells, and cholesterol present. […]
# TNF-α = molecular target: T1, TNF-α (Homo sapiens, UniProt P01375); conditions: humans; 2009 Atherosclerosis 202:296-303; cited from earlier work
# T1 construct: host or cells: human subjects (in vivo, endogenous TNF-α)
# T1 sequence (P01375 77-233 limits assumed): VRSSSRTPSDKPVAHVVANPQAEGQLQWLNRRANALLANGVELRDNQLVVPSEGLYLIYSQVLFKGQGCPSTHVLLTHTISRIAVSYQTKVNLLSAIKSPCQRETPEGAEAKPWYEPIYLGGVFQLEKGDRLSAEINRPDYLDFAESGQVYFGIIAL
Molecule,risk factor for producing inflammation and plaque (average disease scores) (inflammation and plaque),"shedding of glycocalyx constituents, coagulation activation, vessel function (TNF-α)"
"Clc1ccc(-c2ccc(Cl)c(Cl)c2)cc1Cl [PCB77, 3,3′,4,4′-Tetrachlorobiphenyl]",most significant risk factor to producing inflammation and plaque,
etanercept,,"reduces the shedding of glycocalyx constituents, coagulation activation, and functional vessel function"
